Where two headings read alike, the source gives them in different places. Starred links: 1 amine or outer side, 2 acyl side, 3 side chain; linkers in the order of their positions; H or OH if unused. Positions of bridges follow the written chain, without caps; N, C: chain ends. Non-standard residues stand in square brackets, D forms with d. Residues, ends and D or L forms follow the SMILES beside them. *: point of attachment. Phe(3-(CH2)4CO) = O=C([C@H](Cc1cccc(CCCCC(=O)[*:3])c1)N[*:1])[*:2]; NMeF = CN[C@@H](Cc1ccccc1)C(=O)O; NMeGABA = CN(CCCC(=O)[*:2])[*:1]; NMeI = CC[C@H](C)[C@H](NC)C(=O)O; NMeβAla = CN(CCC(=O)[*:2])[*:1]; NMeL = CN[C@@H](CC(C)C)C(=O)O; NMeV = CN[C@H](C(=O)O)C(C)C; NMeA = CN[C@@H](C)C(=O)O; Piperidide = C1CCN(*)CC1; dNMeA = CN[C@H](C)C(=O)O; β3hA = C[C@H](N)CC(=O)O; Aib = CC(C)(N)C(=O)O; Sar = CNCC(=O)O; tBu = CC(C)(C)*
Assays:
[1] = PAMPA (parallel artificial membrane permeability assay); format: in vitro ADME; details: for Papp at 18 hours, 50 µM: PAMPA
Procedure, shortened: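 Artificial membrane was 10% (w/v) egg lecithin plus 0.5% (w/v) cholesterol in dodecane on a PVDF filter. A 10 mM DMSO stock was added at 0.5% (v/v) to donor buffer (50 mM MOPSO, pH 6.5, 5.0% glycocholic acid). After 18 h at 37 °C, LC/MS or LC/UV gave donor and acceptor levels for Pe.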

[2] = Metabolic stability in human hepatic microsome; format: in vitro ADME; details: microsomes
[3] = membrane permeation rate (Pe), 50 mM MOPSO buffer pH 6.5 with 5.0% glycocholic acid, 37° C., 18 hours, read-out: iPAMPA Pe
[4] = pH 7.4, human hepatic microsome, NADPH(+), read-out: CL NADPH(+)

SMILES	Papp at 18 hours, 50 µM ([1]; pH 6.5) [×10⁻⁶ cm/s]	microsomal CLint at 1 uM ([2]; human, pH 7.4, CL NADPH(+)) [µL/min/mg]	Papp at 18 hours, 50 µM [1, 3] [×10⁻⁶ cm/s]	microsomal CLint at 1 uM [2, 4] [µL/min/mg]	iPAMPA Pe ([1]; membrane permeation rate (Pe), 50 mM MOPSO buffer pH 6.5 with 5.0% glycocholic acid, 37° C., 18 hours)
CC[C@H](C)[C@H]1C(=O)N[C@@H](C)C(=O)N(C)[C@@H](CC(C)C)C(=O)N[C@@H](COC(C)(C)C)C(=O)N(C)[C@@H](CC(C)C)C(=O)N[C@@H](C)CC(=O)N(C)CCC(=O)N[C@@H](Cc2ccccc2)C(=O)N(C)[C@@H](Cc2ccccc2)C(=O)N(C)[C@@H](CC(C)C)C(=O)N[C@@H]([C@@H](C)O)C(=O)N(C)[C@@H](C)C(=O)N1C [DP-756] (cyclo(A[NMeL]S(tBu)[NMeL][β3hA][NMeβAla]F[NMeF][NMeL]T[NMeA][NMeI]))	30	65	–	–	–
CC[C@H](C)[C@H]1C(=O)NCC(=O)N(C)[C@@H](CC(C)C)C(=O)N[C@@H]([C@@H](C)O)C(=O)N2CCC[C@H]2C(=O)NC(C)(C)C(=O)N[C@H](C(=O)N2CCCCC2)CC(=O)N(C)[C@@H](C)C(=O)N[C@@H](Cc2ccccc2)C(=O)N(C)[C@@H](CC(C)C)C(=O)N[C@@H](CC(C)C)C(=O)N1C [DP-564] ([NMeA]F[NMeL]L[NMeI]G[NMeL]TP[Aib]D-Piperidide; lactam N-11)	–	–	27	80	–
CC(C)C[C@H]1C(=O)N(C)[C@@H](C(C)C)C(=O)N(C)[C@@H](C)C(=O)N[C@H](C(=O)N(C)[C@@H](Cc2ccccc2)C(=O)N(C)[C@@H](Cc2ccccc2)C(=O)N[C@@H](C)C(=O)N2CCCCC2)CC(=O)N(C)CCC(=O)N(C)CC(=O)N[C@@H]([C@@H](C)O)C(=O)N[C@@H](Cc2ccccc2)C(=O)N(C)[C@@H](C(C)C)C(=O)N[C@@H](C)C(=O)N1C [DP-497] ([NMeβAla][Sar]TF[NMeV]A[NMeL][NMeV][NMeA]D[NMeF][NMeF]A-Piperidide; lactam N-10)	–	–	9.3	58	–
CC[C@H](C)[C@@H]1NC(=O)[C@H](CC(C)C)N(C)C(=O)CCCCc2cccc(c2)C[C@@H](C(=O)N2CCCCC2)NC(=O)[C@H](CC(C)C)N(C)C(=O)[C@H](C)N(C)C(=O)[C@H]([C@@H](C)O)NC(=O)[C@H](CC(C)C)N(C)C(=O)[C@H](COC(C)(C)C)NC(=O)[C@H](Cc2ccccc2)N(C)C(=O)[C@H](Cc2ccccc2)N(C)C1=O [DP-862] ([NMeL]I[NMeF][NMeF]S(tBu)[NMeL]T[NMeA][NMeL][Phe(3-(CH2)4CO)]-Piperidide; lactam N-10)	–	–	–	118	1.0E−07
CC(C)C[C@@H]1NC(=O)[C@H](CCC(=O)O)NC(=O)[C@@H]2CCCN2C(=O)[C@H](CC(C)C)NC(=O)[C@H](CC(C)C)N(C)C(=O)[C@H](Cc2ccccc2)NC(=O)[C@H](C)N(C)C(=O)[C@H](CC(C)C)N(C)C(=O)[C@H](Cc2ccccc2)NC(=O)CN(C)C(=O)C[C@@H](C(=O)N(C)[C@@H](Cc2ccccc2)C(=O)N[C@@H](C)C(=O)N2CCCCC2)NC1=O [DP-595] ([Sar]F[NMeL][NMeA]F[NMeL]LPELD[NMeF]A-Piperidide; lactam N-11)	4.9	9	–	–	–
CC(C)C[C@H]1C(=O)N(C)[C@@H](Cc2ccccc2)C(=O)NCC(=O)N(C)[C@@H](Cc2ccccc2)C(=O)N(C)[C@@H](C)C(=O)N[C@@H]([C@@H](C)O)C(=O)N[C@H](C(=O)N(C)[C@@H](Cc2ccccc2)C(=O)N(C)[C@@H](Cc2ccccc2)C(=O)N[C@@H](C)C(=O)N2CCCCC2)CC(=O)N(C)CC(=O)N[C@@H](C(C)C)C(=O)N1C [DP-314] ([Sar]V[NMeL][NMeF]G[NMeF][NMeA]TD[NMeF][NMeF]A-Piperidide; lactam N-9)	–	–	49	133	–
CC[C@H](C)[C@H](NC(=O)[C@H](CC(C)C)N(C)C(=O)[C@H](CC(C)C)NC(=O)[C@H](C)N(C)C(=O)[C@@H]1CC(=O)N[C@H](C(C)C)C(=O)N(C)[C@@H](CC(C)C)C(=O)N(C)[C@@H](CC(C)C)C(=O)N[C@@H](C)C(=O)N[C@@H](Cc2ccccc2)C(=O)N[C@@H]([C@@H](C)O)C(=O)N[C@@H](CC(C)C)C(=O)N(C)[C@@H](Cc2ccccc2)C(=O)N(C)[C@@H](CC(C)C)C(=O)N1)C(=O)N1CCCCC1 [DP-944] ([dV][NMeL][NMeL]AFTL[NMeF][NMeL]D[NMeA]L[NMeL]I-Piperidide; lactam N-10)	–	–	0.1	20	–
CC(C)C[C@@H]1NC(=O)[C@H](CC(C)C)NC(=O)[C@H](C)N(C)C(=O)C[C@@H](C(=O)N2CCCCC2)NC(=O)[C@H](C(C)C)N(C)C(=O)[C@H](CC(C)C)NC(=O)[C@H](Cc2ccccc2)NC(=O)[C@H]([C@@H](C)O)NC(=O)CN(C)C(=O)[C@H](CC(C)C)NC(=O)C(C)(C)NC1=O [DP-560] ([NMeA]LL[Aib]L[Sar]TFL[NMeV]D-Piperidide; lactam N-11)	–	–	26	28	–
CC(C)C[C@H]1C(=O)N[C@H](C(=O)N(C)[C@@H](Cc2ccccc2)C(=O)N[C@@H](C)C(=O)N2CCCCC2)CC(=O)N(C)[C@@H](C)C(=O)N(C)[C@@H](C)C(=O)N[C@@H](C(C)C)C(=O)N(C)[C@@H](C)C(=O)N(C)[C@@H](Cc2ccccc2)C(=O)N[C@@H]([C@@H](C)O)C(=O)N(C)CC(=O)N(C)[C@@H](C)C(=O)N1C [DP-349] ([NMeA][NMeA]V[NMeA][NMeF]T[Sar][NMeA][NMeL]D[NMeF]A-Piperidide; lactam N-10)	–	–	3.9	13	–
CC(C)C[C@H]1C(=O)N(C)[C@@H](Cc2ccccc2)C(=O)N[C@@H](Cc2ccccc2)C(=O)N(C)[C@@H](CC(C)C)C(=O)N[C@@H]([C@@H](C)O)C(=O)N(C)[C@@H](C)C(=O)N[C@H](C(=O)N2CCCCC2)CC(=O)N(C)[C@H](C)C(=O)N[C@@H](C)C(=O)N1C [DP-157] ([dNMeA]A[NMeL][NMeF]F[NMeL]T[NMeA]D-Piperidide; lactam N-9)	–	–	27	368	–
CC(C)C[C@H]1C(=O)N(C)[C@@H](Cc2ccccc2)C(=O)NCC(=O)N[C@@H](C)CC(=O)N(C)CCCC(=O)N[C@@H]([C@@H](C)O)C(=O)N(C)[C@@H](C)C(=O)N(C)[C@@H](Cc2ccccc2)C(=O)N[C@@H](COC(C)(C)C)C(=O)N1C [DP-785] (cyclo(G[β3hA][NMeGABA]T[NMeA][NMeF]S(tBu)[NMeL][NMeF]))	29	193	–	–	–
CC[C@H](C)[C@@H]1NC(=O)[C@@H](C)N(C)C(=O)C[C@@H](C(=O)N(C)[C@@H](Cc2ccccc2)C(=O)N[C@@H](C)C(=O)N2CCCCC2)NC(=O)[C@H](Cc2ccccc2)N(C)C(=O)CN(C)C(=O)[C@H]([C@@H](C)O)NC(=O)[C@H](C)N(C)C(=O)[C@H](C(C)C)N(C)C(=O)[C@H](Cc2ccccc2)NC(=O)[C@H](CC(C)C)N(C)C(=O)[C@H](CC(C)C)N(C)C1=O [DP-183] ([dNMeA]I[NMeL][NMeL]F[NMeV][NMeA]T[Sar][NMeF]D[NMeF]A-Piperidide; lactam N-11)	–	–	29	25	–
CC[C@H](C)[C@H]1C(=O)N[C@@H](Cc2ccccc2)C(=O)N(C)[C@@H](CC(C)C)C(=O)N[C@@H](CC(C)C)C(=O)N[C@H](C(=O)N2CCCCC2)CC(=O)N(C)[C@H](C)C(=O)N[C@@H](CC(C)C)C(=O)N(C)[C@@H](C)C(=O)N2CCC[C@H]2C(=O)N[C@@H]([C@@H](C)O)C(=O)N(C)[C@@H](Cc2ccccc2)C(=O)NCC(=O)N1C [DP-224] ([dNMeA]L[NMeA]PT[NMeF]G[NMeI]F[NMeL]LD-Piperidide; lactam N-12)	18	18	–	–	–
CC(C)C[C@H]1C(=O)N[C@H](C(=O)N(C)[C@@H](Cc2ccccc2)C(=O)N[C@@H](C)C(=O)N2CCCCC2)CC(=O)N(C)CCC(=O)N(C)[C@@H](C)C(=O)N[C@@H](C(C)C)C(=O)N(C)[C@@H](C(C)C)C(=O)N(C)[C@@H](Cc2ccccc2)C(=O)N(C)CC(=O)N[C@@H]([C@@H](C)O)C(=O)N(C)[C@@H](C)C(=O)N1C [DP-449] ([NMeβAla][NMeA]V[NMeV][NMeF][Sar]T[NMeA][NMeL]D[NMeF]A-Piperidide; lactam N-10)	–	–	6	6	–
CC(C)C[C@H]1C(=O)N(C)[C@@H](Cc2ccccc2)C(=O)N(C)[C@@H](CC(C)C)C(=O)N[C@@H](C)CC(=O)N[C@H](C(C)C)C(=O)N[C@@H](C)C(=O)N[C@@H]([C@@H](C)O)C(=O)N(C)[C@@H](C)C(=O)N[C@@H](Cc2ccccc2)C(=O)N1C [DP-788] (cyclo(AT[NMeA]F[NMeL][NMeF][NMeL][β3hA][dV]))	–	–	49	158	–
C=C1CCC(=O)N[C@@H](C)C(=O)N(C)[C@@H](CC(C)C)C(=O)N[C@@H]([C@@H](C)CC)C(=O)N(C)[C@@H](Cc2ccccc2)C(=O)N(C)[C@@H](CC(C)C)C(=O)N(C)[C@@H](C(C)C)C(=O)N[C@@H](Cc2ccccc2)C(=O)N[C@@H]([C@@H](C)O)C(=O)N[C@H](C(=O)N2CCCCC2)Cc2cccc1c2 [DP-846]	3.4	310	–	–	–
C=C1CCC(=O)N[C@@H](CC(C)C)C(=O)N[C@@H](C(C)C)C(=O)N(C)[C@@H](CC(C)C)C(=O)N[C@@H](Cc2ccccc2)C(=O)N(C)[C@@H](Cc2ccccc2)C(=O)N[C@@H]([C@@H](C)CC)C(=O)N(C)[C@@H](C)C(=O)N[C@@H](CC(C)C)C(=O)N[C@@H]([C@@H](C)O)C(=O)N[C@H](C(=O)N2CCCCC2)Cc2ccc1cc2 [DP-888]	–	–	0.81	69	–
